Data: PubChem BioAssay AID1963429 (Molecular Pharmacology Branch, DTP, NCI, 2024)
Several values for one entry are separate records, joined by “and”; a condition that tells them apart may be missing. Equal values may be shown once. Each block holds one compound with its values, some of them ahead of it.

Test system: 126254-015-R-J1-PDC complex spheroid growth, % test/control
Assay: Anticancer human tumor 126254-015-R-J1-PDC patient-derived soft tissue sarcoma cell line growth inhibition [Asc]
Details: for viability, T/C: stronger effect = lower value
Procedure, shortened: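 Spheroid model: tumor line + HUVEC + hMSC. Single agents and combinations; top conc. at/near clinical Cmax (10 microM if undetermined), half-log dilutions. DMSO stocks at 800-fold test concentration.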

[1] = curve of first compound, second compound 0.1 µM
[2] = curve of first compound, second compound 0.316 µM
[3] = curve of first compound, second compound 1 µM
[4] = curve of first compound, second compound 3.16 µM
[5] = curve of first compound, second compound 10 µM
[6] = second compound 0.1 µM, first compound 0.0316 µM
[7] = second compound 0.1 µM, first compound 0.1 µM
[8] = second compound 0.1 µM, first compound 0.316 µM
[9] = second compound 0.1 µM, first compound 1 µM
[10] = second compound 0.1 µM, first compound 3.16 µM
[11] = second compound 0.1 µM, first compound 10 µM
[12] = second compound 0.316 µM, first compound 0.0316 µM
[13] = second compound 0.316 µM, first compound 0.1 µM
[14] = second compound 0.316 µM, first compound 0.316 µM
[15] = second compound 0.316 µM, first compound 1 µM
[16] = second compound 0.316 µM, first compound 3.16 µM
[17] = second compound 0.316 µM, first compound 10 µM
[18] = second compound 1 µM, first compound 0.0316 µM
[19] = second compound 1 µM, first compound 0.1 µM
[20] = second compound 1 µM, first compound 0.316 µM
[21] = second compound 1 µM, first compound 1 µM
[22] = second compound 1 µM, first compound 3.16 µM
[23] = second compound 1 µM, first compound 10 µM
[24] = second compound 3.16 µM, first compound 0.0316 µM
[25] = second compound 3.16 µM, first compound 0.1 µM
[26] = second compound 3.16 µM, first compound 0.316 µM
[27] = second compound 3.16 µM, first compound 1 µM
[28] = second compound 3.16 µM, first compound 3.16 µM
[29] = second compound 3.16 µM, first compound 10 µM
[30] = second compound 10 µM, first compound 0.0316 µM
[31] = second compound 10 µM, first compound 0.1 µM
[32] = second compound 10 µM, first compound 0.316 µM
[33] = second compound 10 µM, first compound 1 µM
[34] = second compound 10 µM, first compound 3.16 µM
[35] = second compound 10 µM, first compound 10 µM
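Further: spheroids exposed to compound for seven days.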
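Wherever viability, T/C is given: 100% = DMSO vehicle control wells.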

IC50 [1]: > 10000 nM
IC50 [2]: > 10000 nM
IC50 [3]: > 10000 nM
IC50 [4]: > 10000 nM
IC50 [5]: > 10000 nM
Structure (SMILES): C=CC(=O)N1CCN(c2nc(=O)n(-c3c(C)ccnc3C(C)C)c3nc(-c4c(O)cccc4F)c(F)cc23)C(C)C1 (centres undefined) + Cc1c(S(C)(=O)=O)c(-c2cc(F)cc(N3CCN(c4ccc(NS(=O)(=O)c5ccc(NC(CCN6CCC(C(=O)OCCCP(=O)(O)O)CC6)CSc6ccccc6)c(S(=O)(=O)C(F)(F)F)c5)cc4)CC3)c2)c(-c2ccc(Cl)cc2)n1C(C)C
viability, T/C [6]: 89.8%
viability, T/C [7]: 89.4%
viability, T/C [8]: 95.8%
viability, T/C [9]: 103%
viability, T/C [10]: 101%
viability, T/C [11]: 76.3%
viability, T/C [12]: 90.5%
viability, T/C [13]: 86.2%
viability, T/C [14]: 96.5%
viability, T/C [15]: 91.2%
viability, T/C [16]: 107%
viability, T/C [17]: 84.1%
viability, T/C [18]: 93.9%
viability, T/C [19]: 89%
viability, T/C [20]: 91.2%
viability, T/C [21]: 93%
viability, T/C [22]: 92.8%
viability, T/C [23]: 77.6%
viability, T/C [24]: 83.8%
viability, T/C [25]: 91.5%
viability, T/C [26]: 90.9%
viability, T/C [27]: 93.2%
viability, T/C [28]: 101%
viability, T/C [29]: 78.1%
viability, T/C [30]: 91.3%
viability, T/C [31]: 94.1%
viability, T/C [32]: 105%
viability, T/C [33]: 87%
viability, T/C [34]: 91.7%
viability, T/C [35]: 81.6%

IC50 (curve of compound): > 10000 nM
Structure (SMILES): C=CC(=O)N1CCN(c2nc(=O)n(-c3c(C)ccnc3C(C)C)c3nc(-c4c(O)cccc4F)c(F)cc23)C(C)C1 (centres undefined)
viability, T/C (compound 0.0316 µM): 93.4% and 99.9% and 105%
viability, T/C (compound 0.1 µM): 106% and 97.6% and 110%
viability, T/C (compound 0.316 µM): 107% and 115% and 109%
viability, T/C (compound 1 µM): 102% and 111% and 112%
viability, T/C (compound 3.16 µM): 120% and 116% and 110%
viability, T/C (compound 10 µM): 88.8% and 91% and 102%

IC50 (compound alone, run of 09/27/2022): > 3000 nM
IC50 (curve of compound): > 3000 nM
Structure (SMILES): CCN1C(C(=O)NC23CCC(C(=O)O)(CC2)CC3)C(c2cccc(Cl)c2F)C2(C(=O)Nc3cc(Cl)ccc32)C12CCCCC2 (centres undefined)
viability, T/C (compound 0.00949 µM): 105% and 96.1%
viability, T/C (compound 0.03 µM): 95.4% [middle of 15 runs]
viability, T/C (compound 0.0949 µM): 96.8% [middle of 15 runs]
viability, T/C (compound 0.3 µM): 93.5% [middle of 15 runs]
viability, T/C (compound 0.949 µM): 96.8% [middle of 15 runs]

IC50 [1]: 1860 nM
IC50 [2]: 1390 nM
IC50 [3]: 1360 nM
IC50 [4]: 772 nM
IC50 [5]: 1390 nM
Structure (SMILES): C=C(F)C(=O)N1CCN(c2nc(OCC3CCCN3C)nc3c2CCN(c2cccc4cccc(Cl)c24)C3)CC1CC#N (centres undefined) + Cc1c(S(C)(=O)=O)c(-c2cc(F)cc(N3CCN(c4ccc(NS(=O)(=O)c5ccc(NC(CCN6CCC(C(=O)OCCCP(=O)(O)O)CC6)CSc6ccccc6)c(S(=O)(=O)C(F)(F)F)c5)cc4)CC3)c2)c(-c2ccc(Cl)cc2)n1C(C)C
viability, T/C [6]: 87.2%
viability, T/C [7]: 97.2%
viability, T/C [8]: 89.6%
viability, T/C [9]: 76.5%
viability, T/C [10]: 27.4%
viability, T/C [11]: 0.18%
viability, T/C [12]: 83%
viability, T/C [13]: 91.2%
viability, T/C [14]: 80.2%
viability, T/C [15]: 61%
viability, T/C [16]: 22.8%
viability, T/C [17]: 0.13%
viability, T/C [18]: 83.5%
viability, T/C [19]: 66.3%
viability, T/C [20]: 76.3%
viability, T/C [21]: 57.7%
viability, T/C [22]: 27.2%
viability, T/C [23]: 0.14%
viability, T/C [24]: 88.3%
viability, T/C [25]: 75%
viability, T/C [26]: 61.5%
viability, T/C [27]: 51.7%
viability, T/C [28]: 20.5%
viability, T/C [29]: 0.13%
viability, T/C [30]: 79.2%
viability, T/C [31]: 77.5%
viability, T/C [32]: 77.8%
viability, T/C [33]: 62.4%
viability, T/C [34]: 18.5%
viability, T/C [35]: 0.2%
